# US10858335B2 (Rigel Pharmaceuticals, Inc., priority 2014, dated 2020)
# Test system: GDF8 signaling (p-SMAD-3 (Ser423/425))
# Assay: AlphaScreen SureFire SMAD3 (p-Ser423/425) assay, GDF8-stimulated cells (GDF pSMAD)
# Format: cell-based
# Details: Mus musculus, MPC-11, GDF8-stimulated pSMAD3, MPC11; tested as the salt form given; read-out: GDF pSMAD (MPC11) (μM), inhibition of GDF8 signaling
row,Structure (SMILES),IC50 [µM]
1,"Nc1ncnc2ccc(-c3cccnc3-c3cccc(O)c3)cc12 [compound 977, 3-(3-(4-aminoquinazolin-6-yl)pyridin-2-yl)phenol]",1
2,"Nc1ncnc2ccc(-c3cccnc3-c3ccc(F)c(Cl)c3F)cc12 [compound 978, 6-(2-(3-chloro-2,4-difluorophenyl)pyridin-3-yl)quinazolin-4-amine]",1.87
3,"CN(C)C(=O)Oc1cccc(-c2ncccc2-c2ccc3ncnc(N)c3c2)c1 [compound 979, 3-(3-(4-aminoquinazolin-6-yl)pyridin-2-yl)phenyl dimethylcarbamate]",14
4,"Cc1cc2ncnc(N)c2cc1-c1cccnc1-c1ccc(F)c(Cl)c1 [compound 980, 6-(2-(3-chloro-4-fluorophenyl)pyridin-3-yl)-7-methylquinazolin-4-amine]",3.73
5,"Cc1cc2ncnc(N)c2cc1-c1cccnc1-c1cc(Cl)ccc1F [compound 981, 6-(2-(5-chloro-2-fluorophenyl)pyridin-3-yl)-7-methylquinazolin-4-amine]",9.34

# Same assay, conditions: Mus musculus, MPC-11, MPC11; GDF8-stimulated; p-SMAD3 AlphaScreen; read-out: GDF pSMAD (MPC11) (inhibition of GDF8 signaling)
row,Structure (SMILES),IC50 [µM]
1,"CN1CCC(NC(=O)c2cnn3ccc(-c4cccnc4-c4ccc(F)c(Cl)c4)nc23)CC1 [compound 899, 5-(2-(3-Chloro-4-fluorophenyl)pyridin-3-yl)-N-(1-methylpiperidin-4-yl)pyrazolo[1,5-a]pyrimidine-3-carboxamide]",2.14
2,"N#Cc1cnn2ccc(-c3cccnc3-c3ccc(F)c(Cl)c3)nc12 [compound 900, 5-(2-(3-Chloro-4-fluorophenyl)pyridin-3-yl)pyrazolo[1,5-a]pyrimidine-3-carbonitrile]",2.35
3,"Cc1cc(-c2ncccc2-c2ccn3ncc(C#N)c3n2)ccc1F [compound 901, 5-(2-(4-Fluoro-3-methylphenyl)pyridin-3-yl)pyrazolo[1,5-a]pyrimidine-3-carbonitrile]",1.06
4,"COc1cc(Nc2nccc(-c3cccnc3-c3ccc(F)c(C)c3)n2)cc(OC)c1OC [compound 903, 4-(2-(4-Fluoro-3-methylphenyl)pyridin-3-yl)-N-(3,4,5-trimethoxyphenyl)pyrimidin-2-amine]",2.58
5,"Cc1cc(-c2ncccc2-c2ccnc(Nc3ccc(N4CCOCC4)cc3)n2)ccc1F [compound 904, 4-(2-(4-Fluoro-3-methylphenyl)pyridin-3-yl)-N-(4-morpholinophenyl)pyrimidin-2-amine]",9.07
6,"Cc1cc(-c2ncccc2-c2ccnc(Nc3cccc(N4CCOCC4)c3)n2)ccc1F [compound 905, 4-(2-(4-Fluoro-3-methylphenyl)pyridin-3-yl)-N-(3-morpholinophenyl)pyrimidin-2-amine]",1.49
7,"Cc1cc(-c2ncccc2-c2ccnc(Nc3ccc(S(N)(=O)=O)cc3)n2)ccc1F [compound 906, 4-((4-(2-(4-Fluoro-3-methylphenyl)pyridin-3-yl)pyrimidin-2-yl)amino)benzenesulfonamide]",3.34
8,"Cc1cc(-c2ncccc2-c2ccnc(Nc3cccc(S(N)(=O)=O)c3)n2)ccc1F [compound 907, 3-((4-(2-(4-Fluoro-3-methylphenyl)pyridin-3-yl)pyrimidin-2-yl)amino)benzenesulfonamide]",0.164
9,"Cc1cc(-c2ncccc2-c2ccn3nccc3n2)ccc1F [compound 910, 5-(2-(4-Fluoro-3-methylphenyl)pyridin-3-yl)pyrazolo[1,5-a]pyrimidine]",0.0972
10,"Cc1cccc(-c2ncccc2-c2ccn3nccc3n2)c1 [compound 911, 5-(2-(m-Tolyl)pyridin-3-yl)pyrazolo[1,5-a]pyrimidine]",0.0939
11,"c1cc(-c2ncccc2-c2ccn3nccc3n2)cc(C2CC2)c1 [compound 912, 5-(2-(3-Cyclopropylphenyl)pyridin-3-yl)pyrazolo[1,5-a]pyrimidine]",0.112
12,"FC(F)(F)c1cccc(-c2ncccc2-c2ccn3nccc3n2)c1 [compound 913, 5-(2-(3-(Trifluoromethyl)phenyl)pyridin-3-yl)pyrazolo[1,5-a]pyrimidine]",0.661
13,"Fc1ccc(-c2ncccc2-c2ccn3nccc3n2)cc1Cl [compound 914, 5-(2-(3-Chloro-4-fluorophenyl)pyridin-3-yl)pyrazolo[1,5-a]pyrimidine]",0.126
14,"Fc1cc(F)c(-c2ncccc2-c2ccn3nccc3n2)cc1F [compound 915, 5-(2-(2,4,5-Trifluorophenyl)pyridin-3-yl)pyrazolo[1,5-a]pyrimidine]",0.558
15,"Clc1cccc(-c2ncccc2-c2ccn3nccc3n2)c1 [compound 916, 5-(2-(3-Chlorophenyl)pyridin-3-yl)pyrazolo[1,5-a]pyrimidine]",0.104
16,"Fc1ccc(Cl)cc1-c1ncccc1-c1ccn2nccc2n1 [compound 917, 5-(2-(5-Chloro-2-fluorophenyl)pyridin-3-yl)pyrazolo[1,5-a]pyrimidine]",0.18
17,"Fc1cc(F)c(-c2ncccc2-c2ccn3nccc3n2)cc1Cl [compound 918, 5-(2-(5-Chloro-2,4-difluorophenyl)pyridin-3-yl)pyrazolo[1,5-a]pyrimidine]",0.206
18,"Clc1ccc(Cl)c(-c2ncccc2-c2ccn3nccc3n2)c1 [compound 920, 5-(2-(2,5-Dichlorophenyl)pyridin-3-yl)pyrazolo[1,5-a]pyrimidine]",0.272
19,"FC(F)Oc1cccc(-c2ncccc2-c2ccn3nccc3n2)c1 [compound 921, 5-(2-(3-(Difluoromethoxy)phenyl)pyridin-3-yl)pyrazolo[1,5-a]pyrimidine]",0.0706
20,"Cc1cc(-c2ncccc2-c2ccc3nccn3n2)ccc1F [compound 934, 6-(2-(4-Fluoro-3-methylphenyl)pyridin-3-yl)imidazo[1,2-b]pyridazine]",0.41

row,Structure (SMILES),IC50 [µM]
1,"Fc1ccc(-c2ncccc2-c2ccc3nccn3n2)cc1Cl [compound 935, 6-(2-(3-Chloro-4-fluorophenyl)pyridin-3-yl)imidazo[1,2-b]pyridazine]",0.192
2,"Clc1cccc(-c2ncccc2-c2ccc3nccn3n2)c1 [compound 936, 6-(2-(3-Chlorophenyl)pyridin-3-yl)imidazo[1,2-b]pyridazine]",0.228
3,"Fc1cc(F)c(-c2ncccc2-c2ccc3nccn3n2)cc1Cl [compound 938, 6-(2-(5-Chloro-2,4-difluorophenyl)pyridin-3-yl)imidazo[1,2-b]pyridazine]",0.242
4,"Cc1cc(-c2ncccc2-c2ccc3ncc(C#N)n3n2)ccc1F [compound 947, 6-(2-(4-Fluoro-3-methylphenyl)pyridin-3-yl)imidazo[1,2-b]pyridazine-3-carbonitrile]",0.429
5,"N#Cc1cnc2ccc(-c3cccnc3-c3ccc(F)c(Cl)c3)nn12 [compound 948, 6-(2-(3-Chloro-4-fluorophenyl)pyridin-3-yl)imidazo[1,2-b]pyridazine-3-carbonitrile]",0.951
6,"N#Cc1cnc2ccc(-c3cccnc3-c3cccc(Cl)c3)nn12 [compound 949, 6-(2-(3-Chlorophenyl)pyridin-3-yl)imidazo[1,2-b]pyridazine-3-carbonitrile]",0.375
7,"N#Cc1cnc2ccc(-c3cccnc3-c3cc(Cl)ccc3F)nn12 [compound 950, 6-(2-(5-Chloro-2-fluorophenyl)pyridin-3-yl)imidazo[1,2-b]pyridazine-3-carbonitrile]",0.129
8,"N#Cc1cnc2ccc(-c3cccnc3-c3cc(Cl)c(F)cc3F)nn12 [compound 951, 6-(2-(5-Chloro-2,4-difluorophenyl)pyridin-3-yl)imidazo[1,2-b]pyridazine-3-carbonitrile]",0.543
9,"Cc1cc(-c2ncccc2-c2ccc3ncnn3n2)ccc1F [compound 952, 6-(2-(4-Fluoro-3-methylphenyl)pyridin-3-yl)-[1,2,4]triazolo[1,5-b]pyridazine]",0.391
10,"Fc1ccc(-c2ncccc2-c2ccc3ncnn3n2)cc1Cl [compound 953, 6-(2-(3-Chloro-4-fluorophenyl)pyridin-3-yl)-[1,2,4]triazolo[1,5-b]pyridazine]",0.661
11,"Clc1cccc(-c2ncccc2-c2ccc3ncnn3n2)c1 [compound 954, 6-(2-(3-Chlorophenyl)pyridin-3-yl)-[1,2,4]triazolo[1,5-b]pyridazine]",0.438
12,"Fc1ccc(Cl)cc1-c1ncccc1-c1ccc2ncnn2n1 [compound 955, 6-(2-(5-Chloro-2-fluorophenyl)pyridin-3-yl)-[1,2,4]triazolo[1,5-b]pyridazine]",0.29
13,"Fc1cc(F)c(-c2ncccc2-c2ccc3ncnn3n2)cc1Cl [compound 956, 6-(2-(5-Chloro-2,4-difluorophenyl)pyridin-3-yl)-[l 1,2,4]triazolo[1,5-b]pyridazine]",0.421
14,"O=c1[nH]cnc2ccc(-c3cccnc3-c3ccc(F)c(Cl)c3)nc12 [compound 960, 6-(2-(3-Chloro-4-fluorophenyl)pyridin-3-yl)pyrido[3,2-d]pyrimidin-4(3H)-one]",1.69
15,"FC(F)Oc1cccc(-c2ncccc2-c2ccc3ncsc3c2)c1 [compound 961, 6-(2-(3-(Difluoromethoxy)phenyl)pyridin-3-yl)benzo[d]thiazole]",0.129
16,"FC(F)Oc1cccc(-c2ncccc2-c2ccc3nccnc3c2)c1 [compound 962, 6-(2-(3-(Difluoromethoxy)phenyl)pyridin-3-yl)quinoxaline]",0.622
17,"Cn1cnc2ccc(-c3cccnc3-c3cccc(OC(F)F)c3)cc21 [compound 963, 6-(2-(3-(Difluoromethoxy)phenyl)pyridin-3-yl)-1-methyl-1H-benzo[d]imidazole]",0.175
18,"Nc1ncnc2ccc(-c3cccnc3-c3ccc(F)c(Cl)c3)nc12 [compound 964, 6-(2-(3-Chloro-4-fluorophenyl)pyridin-3-yl)pyrido[3,2-d]pyrimidin-4-amine]",0.232
19,"Fc1ccc(-c2ncccc2-c2ccn3nccc3n2)c(F)c1Cl [compound 965, 5-(2-(3-Chloro-2,4-difluorophenyl)pyridin-3-yl)pyrazolo[1,5-a]pyrimidine]",5.19
20,"Cn1cnc2ccc(-c3cccnc3-c3ccc(F)c(Cl)c3F)cc21 [compound 967, 6-(2-(3-Chloro-2,4-difluorophenyl)pyridin-3-yl)-1-methyl-1H-benzo[d]imidazole]",1.44
